“Also recorded” adds a separate entry of the source.
Assays:
zebrafish embryos [1] = experiment: Liver size in zebrafish embryos (lfabp in situ hybridization, lfabp:GFP); format: in vivo; settings: for liver size: other NO donors at optimal doses, alternative NOS inhibitor, inactive enantiomer, dose series; for liver size (in situ hybridization for lfabp and transferrin): 10 μM, exposure 24-72 hpf
Experimental: In order to identify regulators of liver formation a chemical genetic screen was conducted. Several of the chemicals identified by the screen were known to impact on NO signaling. Based on these initial observations, well-established modulators of NO signaling were secondarily screened for effects on liver formation. […] The contrasting effects of L-Arg and L-NAME on liver formation were confirmed by in vivo fluorescent microscopy of lfabp:GFP transgenic zebrafish. To quantify the phenotypic changes caused by NO signaling, the liver size (region of lfabp expression) of treated embryos were scored as large, medium or small. […]
To further characterize the role of NO signaling on liver formation, we studied the temporal requirements for NO signaling. Embryos were exposed to Deta (10 μM), L-Arg (10 μM) or L-NAME (10 μM) from 24-48 or 48-72 hpf at which point liver size was assessed. […] Exposure of embryos to L-Arg (10 μM) caused a subtle yet significant increase in the hepatic bud size at 36 hpf (region of hhex expression) in 26% of embryos, whereas L-NAME diminished hepatic bud size in 33% of embryos. […]

lfabp:GFP embryos [2] = experiment: APAP-induced liver injury in zebrafish larvae, sub-lethal dose (liver size, BrdU); format: in vivo; settings: for liver size: APAP 5 mM 48-60 hpf, treatment in recovery phase 60-96 hpf, L-NAME 10 μM, NAC 10 μM, GSNORi 1 μM; for liver size and survival after APAP exposure: summary, embryos and adults, co-exposure; for liver size / hepatoprotection: co-exposure model: APAP 5 mM concurrently with treatment 48-96 hpf, Deta 5 μM
Experimental: In order to examine the possible hepatoprotective effect of GSNORi in the context of acetaminophen (APAP) induced liver injury. Transgenic lfabp:GFP embryos were exposed to a sub-lethal dose of APAP (5 mM) from 48 to 60 hpf followed by treatment during the recovery phase (60-96 hpf) with L-NAME, GSNORi and/or NAC. […] In order to further investigate the proliferative effect of treatments following APAP induced liver injury, we examined BrdU incorporation during the recovery phase.

zebrafish embryos [3] = experiment: Survival of zebrafish embryos exposed to a lethal dose of APAP; format: in vivo; settings: for survival: GSNORi 1 μM, NAC 10 μM; for survival compared to APAP alone: co-exposure 5 μM
Experimental: Having found a hepatoprotective effect of GSNORi in embryos exposed to a sublethal dose of APAP, we next examined whether GSNORi was able to enhance survival in embryos exposed to a lethal dose of APAP (10 mM).

adult zebrafish = experiment: APAP-induced liver injury in adult zebrafish; format: in vivo; settings: for hepatic glutathione (GSH) / liver histology / overall survival compared to APAP alone: APAP 10 mM; for hepatic glutathione (GSH) / liver histology: GSNORi 1 μM and/or NAC 10 μM; for overall survival compared to APAP alone: adults, Deta 5 μM, GSNO 5 μM
Experimental: Having shown that GSNORi was hepatoprotective in APAP exposed larvae, we wanted to examine whether GSNORi remained effective in adult zebrafish. To visualise the hepatoprotective properties of GSNORi in vivo, adult casper lfabp:GFP transgenic fish were exposed to APAP (10 mM) in the presence or absence of GSNORi (1 μM) for 24 hr and examined 72 hpe by fluorescence microscopy. […] To gain a greater understanding of the hepatoprotective potential of GSNORi, survival studies were conducted in which adults were exposed to APAP (10 mM) in the presence or absence of GSNORi (1 μM) for 24 hr, followed by a 2-day recovery period in fresh water. […] The differences in survival were reflected in circulating ALT levels, which are used clinically to assess liver toxicity; peaking at 24 hpe with 196 U/L in APAP (10 mM) exposed fish and 55 U/L for fish exposed to APAP with GSNORi (1 μM).
Given that treatments for APAP-induced liver injury are provided after a considerable delay in the clinical setting, we wanted to determine whether GSNORi would remain hepatoprotective when treatment was delayed. In addition, we wanted to ascertain whether GSNORi could synergize with the clinical antidote NAC and extend the therapeutic window.

zebrafish embryos [4] = experiment: Chemical genetic screen for effects on liver development in zebrafish embryos; format: in vivo; settings: lfabp:GFP fluorescence and lfabp in situ hybridization at 72 hpf
Experimental: The liver arises from anterior endodermal progenitor cells. Liver development can be divided into three stages, specification (18-24 hours post fertilization, hpf), budding/differentiation (24-72 hpf), and hepatic outgrowth (72-96 hpf). The various stages of liver development can be observed in the embryo by in situ hybridization for hhex (endodermal progenitors), foxA3 (differentiated endoderm) and liver fatty acid binding protein (lfabp, marker of hepatocytes).
In an effort to identify novel regulators of liver formation and homeostasis, a library of 2880 biologically active compounds (obtained from the ICCB at Harvard Medical School) was previously screened for global effects on liver development in zebrafish. Hepatogenesis was assessed in vivo using fluorescent reporter fish where the hepatocyte-specific lfabp promoter drives GFP expression. All embryos were imaged with fluorescence microscopy at 72 hpf, then fixed and subjected to in situ hybridization for lfabp to confirm the in vivo findings. Of the chemical treatments, 191 compounds (6.6%) increased, and 344 (11%) decreased liver formation.

zebrafish embryos [5] = experiment: Hepatic bud size in zebrafish embryos (hhex, foxA3, sid4 expression); format: in vivo
Experimental: To further characterize the role of NO signaling on liver formation, we studied the temporal requirements for NO signaling. Embryos were exposed to Deta (10 μM), L-Arg (10 μM) or L-NAME (10 μM) from 24-48 or 48-72 hpf at which point liver size was assessed. […] Exposure of embryos to L-Arg (10 μM) caused a subtle yet significant increase in the hepatic bud size at 36 hpf (region of hhex expression) in 26% of embryos, whereas L-NAME diminished hepatic bud size in 33% of embryos.
The expression pattern of an alternate hepatic progenitor marker prox1 corroborated that chemical modulators of NO signaling alter the size of the developing hepatic bud. […] These findings were verified by qPCR for hhex and foxA3.

zebrafish embryos [6] = experiment: Effect on organs other than the liver in zebrafish embryos (in situ hybridization); format: in vivo; settings: 10 μM, 18 hpf until 72 hpf
Experimental: These findings were corroborated by qPCR for lfabp.
In order to examine the effect that NO signaling had on other endodermal organs including the pancreas and gut, embryos were exposed to Deta (10 μM) or L-NAME (10 μM) from 18 hpf until 72 hpf. Endodermal derived tissue, the exocrine pancreas and gut were stained by in situ hybridization for foxa3, trypsin and ifabp, respectively.

cloche embryos = experiment: Liver size in cloche mutant embryos lacking vasculature; format: in vivo, zebrafish; settings: for liver size in cloche embryos: summary statement
Excerpt: NO signaling can occur via 2 distinct mechanisms namely, cGMP-dependent vasodilation and S-nitrosylation pathways. In order to clarify the importance of the well-known vascular effects of NO, we examined the effect of chemical modulators of NO signaling in cloche mutants that have no endothelial cells and therefore lack any vasculature.

zebrafish embryos [7] = experiment: Hepatic progenitor proliferation in zebrafish embryos (BrdU incorporation, pH3 staining); format: in vivo; settings: for BrdU incorporation (BrdU positive cells): developing hepatic bud; for staining for the mitotic marker pH3: treated embryos
lfabp:GFP embryos [8] = experiment: Flow cytometric analysis of GFP+ hepatocytes in lfabp:GFP embryos; settings: GFP+ cells, compared to control
Excerpt: S-nitrosoglutathione reductase (GSNOR) is the major enzyme responsible for metabolizing S-nitrosothiols and is therefore a key negative regulator of S-nitrosylation pathways. We reasoned that by inhibiting GSNOR function we could stimulate S-nitrosothiol signaling and modulate liver formation.

NO production = NO production in vivo with fluorescent probe Cu(2)(FL2E); design: species or system zebrafish; settings: cell-trappable fluorescent probe Cu(2)(FL2E)
Zebrafish = experiment: Liver regeneration after 1/3 partial hepatectomy in zebrafish; format: in vivo; settings: 10 μM
Excerpt: In order to determine whether the hepatoprotective and pro-regenerative effect of GSNOR inhibition was limited to APAP-induced liver injury, we determined the impact of exposure to GSNORi after ⅓ partial hepatectomy.

WT mice = experiment: APAP-induced liver injury in WT mice treated with GSNORi and/or NAC; format: in vivo; settings: APAP 300 mg/kg, treatment 2 hrs later, GSNORi 5 mg/kg, NAC 300 mg/kg
Experimental: To investigate this possibility, WT mice were injected with a sub-lethal dose of APAP (300 mg/kg) followed 2 hrs later by treatment with GSNORi (5 mg/kg) and/or NAC (300 mg/kg). Mice were sacrificed at 6 or 24 hr.

[9] = APAP 10 mM 48-96 hpf, co-exposure
[10] = APAP 10 mM for 18 hr followed by delayed treatment, GSNORi 1 μM, NAC 10 μM

For CC(=O)NC(C(=O)O)C(C)(C)SN=O (racemic) [SNAP, S-Nitroso-N-Acetyl-D,L-Penicillamine], the liver size (zebrafish embryos [1]) was “increase liver size”.

For CC(=O)Nc1ccc(O)cc1 [APAP, N-acetyl-p-aminophenol], the liver size (lfabp:GFP embryos [2]) was “dramatic decrease in liver size”, the “liver size and survival after APAP exposure” value (lfabp:GFP embryos [2]) was “decrease in liver size and death” and the survival (zebrafish embryos [3]; [9]) was 4%. For the same compound, the “circulating ALT” value (adult zebrafish; 24 hpe, APAP 10 mM ± GSNORi 1 μM) was 196 U/L, the “survival by 72 hpe” value (adult zebrafish; [10]) was 57% and the “survival by 72 hpe” value (adult zebrafish; APAP 10 mM ± GSNORi 1 μM for 24 hr, 2-day recovery in fresh water) was 39%. For the same compound, the “hepatic glutathione (GSH)” value (adult zebrafish) was “dramatic reduction in hepatic glutathione (GSH)”, the liver histology (adult zebrafish) was “hepatocyte necrosis and hemorrhaging” and the “GFP fluorescence (fluorescence microscopy)” value (adult zebrafish; adult casper lfabp:GFP fish, APAP 10 mM ± GSNORi 1 μM for 24 hr, examined 72 hpe) was “reduction in GFP fluorescence”.

For N=C(N)NCCC[C@@H](N)C(=O)O [D-Arg, D-Arginine], the liver size (zebrafish embryos [1]) was “no effect on liver size”.

NCCN(CCN)/[N+]([O-])=N/O [Deta, Diethylenetriamine-NONOate] was tested, and the liver size (zebrafish embryos [4]) was “increase in liver size”, the liver size (zebrafish embryos [1]) was “increase liver size” and the “region of hhex and foxA3 expression in the developing hepatic bud” value (zebrafish embryos [5]; 10 μM) was “increasing the region of hhex and foxA3 expression”. For the same compound, the “size of other endodermal organs (foxa3, trypsin, ifabp)” value (zebrafish embryos [6]) was “did not observably affect the size of other endodermal organs”, the “liver size / hepatoprotection” value (lfabp:GFP embryos [2]) was “protected the liver” and the “survival compared to APAP alone” value (zebrafish embryos [3]; APAP 10 mM) was “increased survival”. For the same compound, the “overall survival compared to APAP alone” value (adult zebrafish) was “enhanced overall survival”.

In the case of N[C@@H](CCC(=O)N[C@@H](CSN=O)C(=O)NCC(=O)O)C(=O)O [GSNO, S-nitrosoglutathione], the “embryos with enhanced liver size” value (zebrafish embryos [1]; GSNO 5 μM) is reported as 40%, the “embryos with increased liver size” value (cloche embryos; cloche mutants, GSNO 5 μM) is reported as 46% and the “liver size in cloche embryos” value (cloche embryos) is reported as “able to modulate liver size”. The “survival compared to APAP alone” value (zebrafish embryos [3]; APAP 10 mM) was “increased survival” and the “overall survival compared to APAP alone” value (adult zebrafish) was “enhanced overall survival”.

In the case of N=C(N)NCCC[C@H](N)C(=O)O [L-Arg, L-Arginine], the liver size (zebrafish embryos [4]) is reported as “increase in liver size”, the “liver size (in situ hybridization for lfabp and transferrin)” value (zebrafish embryos [1]) is reported as “dramatic increase in liver size” and the “embryos with a large liver” value (zebrafish embryos [1]; L-Arg 10 μM, 24-72 hpf, liver size scored large, medium or small) is reported as “approximately 51%”. For the same compound, the “embryos with increase in hepatic bud size (region of hhex expression)” value (zebrafish embryos [5]; L-Arg 10 μM, 36 hpf) was 26%, the “embryos with increased hepatic bud size (foxA3 expression)” value (zebrafish embryos [5]; L-Arg, 48 hpf) was 51% and the “BrdU incorporation (BrdU positive cells)” value (zebrafish embryos [7]) was “increase in BrdU positive cells”. For the same compound, the “staining for the mitotic marker pH3” value (zebrafish embryos [7]) was “increased hepatic proliferation”, the hepatocytes per embryo (lfabp:GFP embryos [8]) was “increase in hepatocytes per embryo” and the “embryos with increased liver size” value (cloche embryos; cloche mutants, L-Arg 10 μM) was 37%.

With COC(=O)[C@@H](N)CCCNC(=N)N[N+](=O)[O-] [L-NAME, L-N^G-Nitroarginine methyl ester] the liver size (zebrafish embryos [4]) was “smaller livers; also recorded: small liver”, the “liver size (in situ hybridization for lfabp and transferrin)” value (zebrafish embryos [1]) was “decrease in liver size” and the “embryos with diminished liver size” value (zebrafish embryos [1]; L-NAME 10 μM, 24-72 hpf) was 62%. The “embryos with diminished hepatic bud size (hhex)” value (zebrafish embryos [5]; L-NAME, 36 hpf) was 33%, the “embryos with restricted hepatic bud size (foxA3 expression)” value (zebrafish embryos [5]; L-NAME, 48 hpf) was 60% and the “BrdU incorporation (BrdU positive cells)” value (zebrafish embryos [7]) was “reduced the number of BrdU positive cells”. For the same compound, the “staining for the mitotic marker pH3” value (zebrafish embryos [7]) was “inhibited cell cycle progression”, the hepatocytes per embryo (lfabp:GFP embryos [8]) was “decrease” and the “NO in the developing endoderm” value (NO production) was “inhibited”. The “size of other endodermal organs (foxa3, trypsin, ifabp)” value (zebrafish embryos [6]) was “did not observably affect the size of other endodermal organs”, the “embryos with a small liver” value (cloche embryos; cloche mutants, L-NAME 10 μM) was 40% and the “liver size in cloche embryos” value (cloche embryos) was “able to modulate liver size”. For the same compound, the liver size (lfabp:GFP embryos [2]) was “exacerbated”, the “liver size / hepatoprotection” value (lfabp:GFP embryos [2]) was “exacerbated injury” and the “liver size and survival after APAP exposure” value (lfabp:GFP embryos [2]) was “further decrease in liver size and more extensive loss in survival”. For the same compound, the “overall survival compared to APAP alone” value (adult zebrafish) was “exacerbated the loss in survival” and the regenerative activity (Zebrafish) was “complete cessation of regenerative activity”.

For CC(=O)N[C@@H](CS)C(=O)O [NAC, N-acetylcysteine], the survival (zebrafish embryos [3]; [9]) was 32%, the survival (zebrafish embryos [3]; APAP 10 mM, treatment given after a 12 hr delay) was 15% and the “survival by 72 hpe” value (adult zebrafish; [10]) was 80%. For the same compound, the “hepatic glutathione (GSH)” value (adult zebrafish) was “modulated”, the liver histology (adult zebrafish) was “alleviated” and the “cell proliferation (PCNA immunohistochemistry)” value (adult zebrafish; following APAP injury) was “modulated liver regeneration”. For the same compound, the “circulating ALT, % of the level of APAP alone” value (WT mice) was 43% and the “histological evaluation of centrilobular necrosis” value (WT mice; 6 and 24 hr) was “effective in preventing liver necrosis”.

NG-amino-L-Arginine [L-NMMA] was tested, and the liver size (zebrafish embryos [1]) was “decrease liver size in a dose-dependent manner”.

Source: patent publication US20140135396A1, “Treatment of Acetaminophen-Induced Liver Damage by the Administration of Modulators of Nitric Oxide” (BETH ISRAEL DEACONESS MEDICAL CENTER, INC., priority 2011, published 2014)
